Molecular target: T1, human recombinant mGluR5 (Homo sapiens, UniProt P41594)
T1 construct: expressed in transfected cells; host or cells: HEK 293 cell line cultured with tetracycline, hygromycin and geneticin; tetracycline removed 3-7 days before the assay
Experiment: positive modulation of mGluR5, calcium based FLIPR assay in HEK 293 cells
Details: HEK 293 cell line expressing human recombinant mGluR5; EC50 of the modulation of the glutamate response (glutamate approx. 5% basal stimulation); peak height of Ca release fluorescence signal
Procedure, shortened: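 Potentiation EC50 derived by nonlinear fit of peak calcium fluorescence after a near-5%-maximal glutamate challenge, following 5 min compound exposure (intrinsic activity also recorded). Dye-loaded recombinant human mGluR5 HEK 293 cells in Ringer solution pH 7.4, 1% DMSO; plate controls were vehicle (100%) and 10 μM CDPPB (200%).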

T1 sequence (P41594 21-1212): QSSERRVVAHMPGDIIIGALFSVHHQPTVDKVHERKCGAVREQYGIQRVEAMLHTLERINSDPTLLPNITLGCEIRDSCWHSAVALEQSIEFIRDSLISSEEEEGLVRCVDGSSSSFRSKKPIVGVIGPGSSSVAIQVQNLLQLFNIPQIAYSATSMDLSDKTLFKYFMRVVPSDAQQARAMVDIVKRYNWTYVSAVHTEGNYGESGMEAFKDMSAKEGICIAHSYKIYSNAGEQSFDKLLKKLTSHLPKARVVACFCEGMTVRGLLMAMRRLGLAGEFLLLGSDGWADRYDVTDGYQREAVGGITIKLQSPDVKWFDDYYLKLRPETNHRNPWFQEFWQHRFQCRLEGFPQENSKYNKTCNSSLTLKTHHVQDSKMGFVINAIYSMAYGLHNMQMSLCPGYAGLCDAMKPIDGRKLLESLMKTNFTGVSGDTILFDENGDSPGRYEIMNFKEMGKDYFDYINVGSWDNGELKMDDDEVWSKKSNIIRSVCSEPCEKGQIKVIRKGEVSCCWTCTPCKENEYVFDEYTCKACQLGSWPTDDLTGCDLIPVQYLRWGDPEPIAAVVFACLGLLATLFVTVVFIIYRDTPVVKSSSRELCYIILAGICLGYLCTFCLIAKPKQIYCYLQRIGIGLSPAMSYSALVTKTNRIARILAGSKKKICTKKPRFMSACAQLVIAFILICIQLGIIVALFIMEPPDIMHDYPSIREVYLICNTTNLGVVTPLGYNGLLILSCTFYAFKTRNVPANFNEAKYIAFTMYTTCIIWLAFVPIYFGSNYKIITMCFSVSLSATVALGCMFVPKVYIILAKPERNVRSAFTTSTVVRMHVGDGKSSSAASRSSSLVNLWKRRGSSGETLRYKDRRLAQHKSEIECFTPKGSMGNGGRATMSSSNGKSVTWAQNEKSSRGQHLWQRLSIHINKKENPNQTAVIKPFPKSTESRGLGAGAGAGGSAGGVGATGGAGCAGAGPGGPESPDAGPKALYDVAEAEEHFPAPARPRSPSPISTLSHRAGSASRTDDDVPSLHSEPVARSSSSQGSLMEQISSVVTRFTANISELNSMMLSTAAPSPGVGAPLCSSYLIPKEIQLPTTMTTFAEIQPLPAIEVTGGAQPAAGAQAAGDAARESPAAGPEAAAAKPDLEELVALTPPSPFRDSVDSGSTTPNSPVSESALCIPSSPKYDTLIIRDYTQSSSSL

SMILES	EC50 [nM]
CCCCCc1nc(-c2ccc(F)c(C)c2)nn1CC(=O)N1CCN(c2cc(OC)ccn2)CC1 [Example 07.04.123.]	92
COc1cccc(-c2nc(C3CCCCC3)n(CC(=O)N3CCN(c4ccccn4)CC3)n2)c1 [Example 07.04.053.]	1150
N#Cc1ccc(-c2nc(-c3ccccc3)nn2CC(=O)N2CCN(c3ncccn3)CC2)cc1 [Example 07.10.25.]	639
CCc1nc(-c2ccc(F)c(C)c2)nn1CC(=O)N1CCN(c2ccccn2)CC1 [Example 07.04.091.]	1090
CCCc1nc(-c2ccc(F)c(C)c2)nn1CC(=O)N1CCN(c2cc(OC)ccn2)CC1 [Example 07.04.081.]	353
Cc1cc(-c2nc(C3CCCC(C)C3)n(CC(=O)N3CCN(c4ccccn4)CC3)n2)ccc1F (stereo not drawn) [Example 07.04.149.]	869
Cc1ccnc(N2CCN(C(=O)Cn3nc(-c4ccc(F)cc4)nc3-c3ccc(F)cc3)CC2)c1 [Example 07.02.05.]	44
COc1cccc(-c2nc(-c3ccc(F)cc3)n(CC(=O)N3CCN(c4ncccn4)CC3)n2)c1 [Example 07.04.028.]	30
O=C(Cn1nc(-c2ccc(F)cc2)nc1-c1ccc(F)cc1)N1CCN(c2ccccc2F)CC1 [Example 07.04.13.]	1210
COc1ccnc(N2CCN(C(=O)Cn3nc(-c4ccc(F)cn4)nc3-c3ccc(F)cc3)CC2)c1 [Example 07.04.142.]	434
COc1ccc(-c2nc(C3CCCCC3)n(CC(=O)N3CCN(c4ncccn4)CC3)n2)c(F)c1 [Example 07.04.020.]	388
Cc1cccc(-c2nc(-c3ccccc3)nn2CC(=O)N2CCN(c3ncccn3)CC2)c1 [Example 07.10.19.]	233
CCC(C)c1nc(-c2ccc(F)c(C)c2)nn1CC(=O)N1CCN(c2cccnn2)CC1 (stereo not drawn) [Example 07.04.104.]	1850
Cc1ccnc(N2CCN(C(=O)Cn3nc(-c4ccc(F)cn4)nc3-c3ccc(F)cc3)CC2)c1 [Example 07.04.138.]	1010
COc1ccnc(N2CCN(C(=O)Cn3nc(-c4ccc(F)c(C)c4)nc3-c3ccccc3)CC2)c1 [Example 07.04.063.]	61
COc1ccc(-c2nc(-c3ccc(OC)cc3)n(CC(=O)N3CCN(c4ccccn4)CC3)n2)cc1 [Example 07.02.10.]	83
O=C(Cn1nc(-c2cccc(F)c2)nc1-c1ccccc1)N1CCN(c2ncccn2)CC1 [Example 07.10.07.]	189
CC(=O)N1CCC(Oc2cc(N3CCN(C(=O)Cn4nc(-c5ccc(F)cc5)nc4-c4ccc(F)cc4)CC3)ncn2)CC1 [Example 07.09.08.]	74
O=C(Cn1nc(-c2ccccc2)nc1C1=CCCCC1)N1CCN(c2ncccn2)CC1 [Example 07.10.26.]	543
CC(C)Oc1cc(N2CCN(C(=O)Cn3nc(-c4ccc(F)cc4)nc3-c3ccc(F)cc3)CC2)ncn1 [Example 07.06.04.]	153
CCCc1nc(-c2ccc(OC(F)F)cc2)nn1CC(=O)N1CCN(c2ccccn2)CC1 [Example 7.04.167]	527
Cc1cc(-c2nc(C3CCCC(C)C3)n(CC(=O)N3CCN(c4ncccn4)CC3)n2)ccc1F (stereo not drawn) [Example 07.04.145.]	373
O=C(Cn1nc(-c2ccc(F)cc2)nc1-c1ccc(F)cc1)N1CCN(c2ncncn2)CC1 [Example 07.03.14.]	85
CN1CCC(Nc2cc(N3CCN(C(=O)Cn4nc(-c5ccc(F)cc5)nc4-c4ccc(F)cc4)CC3)ncn2)CC1 [Example 07.08.16.]	1160
COc1cc(N2CCN(C(=O)Cn3nc(-c4ccc(C)c(C)c4)nc3-c3ccccc3)CC2)ncn1 [Example 07.10.30.]	50
Cc1ccnc(N2CCN(C(=O)Cn3nc(-c4ccc(F)cc4)nc3-c3ccc(F)cn3)CC2)c1 [Example 07.04.143.]	783

SMILES	EC50 [nM]
Cc1ccnc(N2CCN(C(=O)Cn3nc(-c4cccc(F)c4)nc3-c3cccc(F)c3)CC2)c1 [Example 07.04.024.]	945
Cc1cc(-c2nc(-c3ccccc3)nn2CC(=O)N2CCN(c3ccccn3)CC2)ccc1F [Example 07.04.076.]	220
Cc1cc(-c2nc(C)n(CC(=O)N3CCN(c4ncccn4)CC3)n2)ccc1F [Example 07.04.097.]	1190
Cc1cc(-c2nc(C3CCCC3)n(CC(=O)N3CCN(c4ncccn4)CC3)n2)ccc1F [Example 07.04.111.]	131
O=C(Cn1nc(-c2ccc(F)cc2)nc1C1CCCCC1)N1CCN(c2ccccn2)CC1 [Example 07.04.029.]	1560
COc1ccnc(N2CCN(C(=O)Cn3nc(-c4ccc(F)cc4)nc3-c3ccc(F)cc3)CC2)n1 [Example 07.03.10.]	67
COc1ccnc(N2CCN(C(=O)Cn3nc(-c4ccc(F)c(C)c4)nc3C)CC2)c1 [Example 07.04.096.]	1520
O=C(Cn1nc(-c2ccc(F)cc2)nc1-c1ccc(F)cc1)N1CCN(c2ncc(Br)cn2)CC1 [Example 07.03.04.]	50
COc1ccnc(N2CCN(C(=O)Cn3nc(-c4ccc(F)c(C)c4)nc3C3CCC(C)CC3)CC2)c1 (stereo not drawn) [Example 07.04.131.]	1000
COc1cnnc(N2CCN(C(=O)Cn3nc(-c4ccc(F)c(C)c4)nc3-c3ccccc3)CC2)c1 [Example 07.04.064.]	192
O=C(Cn1nc(-c2ccc(F)cc2)nc1-c1ccc(F)cc1)N1CCN(c2cc(Cl)ccn2)CC1 [Example 07.04.015.]	364
O=C(Cn1nc(-c2ccc(F)cc2)nc1C#CC1CCCCC1)N1CCN(c2ccccn2)CC1 [Example 07.11.02.]	416
CC(C)c1ccc(-c2nc(-c3ccccc3)nn2CC(=O)N2CCN(c3ncccn3)CC2)cc1 [Example 07.10.20.]	35
Cc1cc(-c2nc(-c3ccc(F)c(C)c3)n(CC(=O)N3CCN(c4ncccn4)CC3)n2)ccc1F [Example 07.04.153.]	22
Cc1cc(-c2nc(C3CCC(F)(F)CC3)n(CC(=O)N3CCN(c4ncccn4)CC3)n2)ccc1F [Example 07.04.144.]	1270
COc1cc(N2CCN(C(=O)Cn3nc(-c4ccc(F)cc4)nc3-c3ccc(F)cc3)CC2)ccn1 [Example 07.03.24.]	254
CCCc1nc(-c2ccc(F)c(C)c2)nn1CC(=O)N1CCN(c2cc(OC)ncn2)CC1 [Example 07.04.080.]	771
Cc1cc(-c2nc(-c3ccc(F)c(C)c3)n(CC(=O)N3CCN(c4ccccn4)CC3)n2)ccc1F [Example 07.04.154.]	54
CCCCc1nc(-c2ccc(F)c(C)c2)nn1CC(=O)N1CCN(c2cc(OC)ccn2)CC1 [Example 07.04.118.]	255
COc1cc(-c2nc(-c3ccc(F)cc3)n(CC(=O)N3CCN(c4ncccn4)CC3)n2)ccc1F [Example 07.04.156.]	18
CCCCc1nc(-c2ccc(F)c(C)c2)nn1CC(=O)N1CCN(c2ccccn2)CC1 [Example 07.04.116.]	697
COc1ccc(-c2nc(-c3ccc(F)cc3)n(CC(=O)N3CCN(c4cc(OC)ccn4)CC3)n2)cc1 [Example 07.04.039.]	30
CCC(C)c1nc(-c2ccc(F)c(C)c2)nn1CC(=O)N1CCN(c2cc(OC)ncn2)CC1 (stereo not drawn) [Example 07.04.103.]	748
COc1ccc(-c2nc(-c3ccc(F)cc3)n(CC(=O)N3CCN(c4cccnn4)CC3)n2)cc1 [Example 07.04.037.]	114
CCOC(=O)c1cccc(N2CCN(C(=O)Cn3nc(-c4ccc(F)cc4)nc3-c3ccc(F)cc3)CC2)c1 [Example 07.03.02.]	1280
